Reference: ChEMBL document CHEMBL4507284, “Data for DCP probe BI-1230” (2021)

Legend:
[1] = target: Cyclin-dependent kinase 7 (Homo sapiens) (UniProt P50613); settings: Compound concentration 1000.0 nM
[2] = target: Serine/threonine-protein kinase 38-like (Homo sapiens) (UniProt Q9Y2H1); settings: Compound concentration 1000.0 nM
[3] = tested on: Receptor-type tyrosine-protein kinase FLT3 (Homo sapiens), P36888 [D835H]; settings: Compound concentration 1000.0 nM
[4] = target: Tyrosine-protein kinase Blk (Homo sapiens) (UniProt P51451); settings: Compound concentration 1000.0 nM
[5] = target: Tyrosine-protein kinase ITK/TSK (Homo sapiens) (UniProt Q08881); settings: Compound concentration 1000.0 nM
[6] = target: Dual specificity tyrosine-phosphorylation-regulated kinase 1B (Homo sapiens) (UniProt Q9Y463); settings: Compound concentration 1000.0 nM
[7] = target: Ephrin type-A receptor 6 (Homo sapiens) (UniProt Q9UF33); settings: Compound concentration 1000.0 nM
[8] = target: cGMP-dependent protein kinase 2 (Homo sapiens) (UniProt Q13237); settings: Compound concentration 1000.0 nM
[9] = target: Casein kinase I isoform alpha-like (Homo sapiens) (UniProt Q8N752); settings: Compound concentration 1000.0 nM
[10] = target: Serine/threonine-protein kinase SIK2 (Homo sapiens) (UniProt Q9H0K1); settings: Compound concentration 1000.0 nM
[11] = target: Casein kinase I isoform gamma-1 (Homo sapiens) (UniProt Q9HCP0); settings: Compound concentration 1000.0 nM
[12] = target: Non-receptor tyrosine-protein kinase TYK2 (Homo sapiens) (UniProt P29597); settings: Compound concentration 1000.0 nM
[13] = target: Death-associated protein kinase 3 (Homo sapiens) (UniProt O43293); settings: Compound concentration 1000.0 nM
[14] = target: Dual specificity protein kinase CLK1 (Homo sapiens) (UniProt P49759); settings: Compound concentration 1000.0 nM
[15] = target: D(1B) dopamine receptor (Homo sapiens) (UniProt P21918); settings: Compound concentration 10.0 uM
[16] = tested on: Tyrosine-protein kinase ABL1 (Homo sapiens), P00519 [F317I]; settings: Compound concentration 1000.0 nM
[17] = target: Protein kinase C iota type (Homo sapiens) (UniProt P41743); settings: Compound concentration 1000.0 nM
[18] = target: Receptor tyrosine-protein kinase erbB-2 (Homo sapiens) (UniProt P04626); settings: Compound concentration 1000.0 nM
[19] = target: Protein kinase C theta type (Homo sapiens) (UniProt Q04759); settings: Compound concentration 1000.0 nM
[20] = target: Leucine-rich repeat serine/threonine-protein kinase 2 (Homo sapiens) (UniProt Q5S007); settings: Compound concentration 1000.0 nM
[21] = target: Serine/threonine-protein kinase pim-1 (Homo sapiens) (UniProt P11309); settings: Compound concentration 1000.0 nM
[22] = target: Histamine H4 receptor (Homo sapiens) (UniProt Q9H3N8); settings: Compound concentration 10.0 uM
[23] = target: Serine/threonine-protein kinase WNK3 (Homo sapiens) (UniProt Q9BYP7); settings: Compound concentration 1000.0 nM
[24] = target: Serine/threonine-protein kinase Nek4 (Homo sapiens) (UniProt P51957); settings: Compound concentration 1000.0 nM
[25] = target: Ribosomal protein S6 kinase alpha-5 (Homo sapiens) (UniProt O75582); settings: Compound concentration 1000.0 nM
[26] = target: TGF-beta receptor type-2 (Homo sapiens) (UniProt P37173); settings: Compound concentration 1000.0 nM
[27] = target: Calcium/calmodulin-dependent protein kinase type 1G (Homo sapiens) (UniProt Q96NX5); settings: Compound concentration 1000.0 nM
[28] = target: Muscarinic acetylcholine receptor M4 (Homo sapiens) (UniProt P08173); settings: Compound concentration 10.0 uM
[29] = target: cAMP-dependent protein kinase catalytic subunit alpha (Homo sapiens) (UniProt P17612); settings: Compound concentration 1000.0 nM
[30] = target: Tyrosine-protein kinase Yes (Homo sapiens) (UniProt P07947); settings: Compound concentration 1000.0 nM
[31] = target: Phosphatidylinositol 4,5-bisphosphate 3-kinase catalytic subunit gamma isoform (Homo sapiens) (UniProt P48736); settings: Compound concentration 1000.0 nM
[32] = target: Muscarinic acetylcholine receptor M2 (Homo sapiens) (UniProt P08172); settings: Compound concentration 10.0 uM
[33] = target: SRSF protein kinase 3 (Homo sapiens) (UniProt Q9UPE1); settings: Compound concentration 1000.0 nM
[34] = target: Calcium/calmodulin-dependent protein kinase kinase 1 (Homo sapiens) (UniProt Q8N5S9); settings: Compound concentration 1000.0 nM
[35] = tested on: Receptor-type tyrosine-protein kinase FLT3 (Homo sapiens), P36888 [K663Q]; settings: Compound concentration 1000.0 nM
[36] = target: Phosphatidylinositol 5-phosphate 4-kinase type-2 gamma (Homo sapiens) (UniProt Q8TBX8); settings: Compound concentration 1000.0 nM
[37] = target: Mitogen-activated protein kinase kinase kinase kinase 5 (Homo sapiens) (UniProt Q9Y4K4); settings: Compound concentration 1000.0 nM
[38] = target: Angiopoietin-1 receptor (Homo sapiens) (UniProt Q02763); settings: Compound concentration 1000.0 nM
[39] = target: Serine/threonine-protein kinase PknB (Mycobacterium tuberculosis) (UniProt P9WI81); settings: Compound concentration 1000.0 nM
[40] = target: Tyrosine-protein kinase ABL1 (Homo sapiens) (UniProt P00519); settings: Compound concentration 1000.0 nM
[41] = target: Ribosomal protein S6 kinase alpha-6 (Homo sapiens) (UniProt Q9UK32); settings: Compound concentration 1000.0 nM
[42] = target: 5-hydroxytryptamine receptor 5A (Homo sapiens) (UniProt P47898); settings: Compound concentration 10.0 uM
[43] = tested on: Receptor-type tyrosine-protein kinase FLT3 (Homo sapiens), P36888 [R834Q]; settings: Compound concentration 1000.0 nM
[44] = tested on: Hepatocyte growth factor receptor (Homo sapiens), P08581 [M1250T]; settings: Compound concentration 1000.0 nM
[45] = target: RAC-alpha serine/threonine-protein kinase (Homo sapiens) (UniProt P31749); settings: Compound concentration 1000.0 nM

Chain of Ephrin type-A receptor 6 (Homo sapiens) (Q9UF33 whole entry): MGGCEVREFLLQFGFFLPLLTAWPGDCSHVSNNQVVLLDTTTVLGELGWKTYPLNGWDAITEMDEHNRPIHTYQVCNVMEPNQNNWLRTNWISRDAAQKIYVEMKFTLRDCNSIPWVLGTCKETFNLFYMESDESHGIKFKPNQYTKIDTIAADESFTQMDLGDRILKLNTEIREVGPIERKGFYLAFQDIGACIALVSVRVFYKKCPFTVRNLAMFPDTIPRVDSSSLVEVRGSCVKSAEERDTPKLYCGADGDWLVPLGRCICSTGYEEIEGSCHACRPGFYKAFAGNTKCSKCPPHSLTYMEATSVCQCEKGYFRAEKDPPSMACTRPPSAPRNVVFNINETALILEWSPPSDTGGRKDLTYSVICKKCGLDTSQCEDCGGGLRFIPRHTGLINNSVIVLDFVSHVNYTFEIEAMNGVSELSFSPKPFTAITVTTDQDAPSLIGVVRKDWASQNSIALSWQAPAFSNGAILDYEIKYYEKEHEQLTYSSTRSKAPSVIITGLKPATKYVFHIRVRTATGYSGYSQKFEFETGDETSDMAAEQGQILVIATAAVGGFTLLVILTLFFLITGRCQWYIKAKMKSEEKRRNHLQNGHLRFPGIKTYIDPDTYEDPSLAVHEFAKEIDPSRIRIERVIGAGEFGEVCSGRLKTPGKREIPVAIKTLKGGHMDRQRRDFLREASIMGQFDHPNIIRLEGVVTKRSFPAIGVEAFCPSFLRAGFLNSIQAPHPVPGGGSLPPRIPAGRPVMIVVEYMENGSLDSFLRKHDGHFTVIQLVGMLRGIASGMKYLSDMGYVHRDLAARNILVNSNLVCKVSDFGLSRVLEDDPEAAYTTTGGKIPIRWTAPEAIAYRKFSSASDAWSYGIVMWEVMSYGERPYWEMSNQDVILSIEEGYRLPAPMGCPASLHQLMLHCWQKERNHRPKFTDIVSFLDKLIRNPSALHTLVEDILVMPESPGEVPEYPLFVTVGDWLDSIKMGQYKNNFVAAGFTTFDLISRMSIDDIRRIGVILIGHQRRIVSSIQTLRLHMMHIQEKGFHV
Chain of Muscarinic acetylcholine receptor M2 (Homo sapiens) (P08172 whole entry): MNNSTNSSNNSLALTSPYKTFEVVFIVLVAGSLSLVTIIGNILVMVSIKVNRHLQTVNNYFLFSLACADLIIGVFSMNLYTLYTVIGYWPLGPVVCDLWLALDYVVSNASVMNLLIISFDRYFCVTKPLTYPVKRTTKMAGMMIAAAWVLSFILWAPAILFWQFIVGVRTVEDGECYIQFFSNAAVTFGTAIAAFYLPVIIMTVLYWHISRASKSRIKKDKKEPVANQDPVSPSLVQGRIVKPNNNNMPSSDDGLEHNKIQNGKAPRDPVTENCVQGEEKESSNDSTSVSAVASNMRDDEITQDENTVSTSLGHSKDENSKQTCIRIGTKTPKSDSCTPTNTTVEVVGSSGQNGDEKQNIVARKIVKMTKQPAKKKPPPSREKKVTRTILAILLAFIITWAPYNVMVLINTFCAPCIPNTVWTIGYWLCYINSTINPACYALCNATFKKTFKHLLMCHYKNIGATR
Chain of D(1B) dopamine receptor (Homo sapiens) (P21918 whole entry): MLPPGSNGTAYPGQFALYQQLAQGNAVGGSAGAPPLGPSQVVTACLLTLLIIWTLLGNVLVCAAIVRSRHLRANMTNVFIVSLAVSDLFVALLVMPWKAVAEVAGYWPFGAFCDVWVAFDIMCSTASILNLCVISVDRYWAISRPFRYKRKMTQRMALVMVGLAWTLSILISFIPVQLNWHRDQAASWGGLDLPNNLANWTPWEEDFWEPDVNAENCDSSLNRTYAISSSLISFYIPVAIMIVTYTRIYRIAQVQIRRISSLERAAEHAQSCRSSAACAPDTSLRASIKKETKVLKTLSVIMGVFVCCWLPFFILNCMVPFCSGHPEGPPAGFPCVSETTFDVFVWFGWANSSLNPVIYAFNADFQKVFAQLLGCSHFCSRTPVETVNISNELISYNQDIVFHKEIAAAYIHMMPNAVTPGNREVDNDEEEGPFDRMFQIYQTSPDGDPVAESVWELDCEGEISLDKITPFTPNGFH
Chain of Histamine H4 receptor (Homo sapiens) (Q9H3N8 whole entry): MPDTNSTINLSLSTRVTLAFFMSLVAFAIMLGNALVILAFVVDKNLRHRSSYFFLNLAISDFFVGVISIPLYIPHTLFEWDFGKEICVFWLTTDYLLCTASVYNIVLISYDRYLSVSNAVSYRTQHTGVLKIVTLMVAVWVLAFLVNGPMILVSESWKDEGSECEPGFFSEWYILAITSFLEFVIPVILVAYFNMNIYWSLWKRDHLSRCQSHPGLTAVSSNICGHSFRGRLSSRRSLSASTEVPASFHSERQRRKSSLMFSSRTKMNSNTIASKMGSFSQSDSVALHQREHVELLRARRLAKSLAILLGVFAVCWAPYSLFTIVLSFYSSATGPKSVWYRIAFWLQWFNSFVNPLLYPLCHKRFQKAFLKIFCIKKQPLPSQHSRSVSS
Chain of Tyrosine-protein kinase Blk (Homo sapiens) (P51451 2-505 limits assumed): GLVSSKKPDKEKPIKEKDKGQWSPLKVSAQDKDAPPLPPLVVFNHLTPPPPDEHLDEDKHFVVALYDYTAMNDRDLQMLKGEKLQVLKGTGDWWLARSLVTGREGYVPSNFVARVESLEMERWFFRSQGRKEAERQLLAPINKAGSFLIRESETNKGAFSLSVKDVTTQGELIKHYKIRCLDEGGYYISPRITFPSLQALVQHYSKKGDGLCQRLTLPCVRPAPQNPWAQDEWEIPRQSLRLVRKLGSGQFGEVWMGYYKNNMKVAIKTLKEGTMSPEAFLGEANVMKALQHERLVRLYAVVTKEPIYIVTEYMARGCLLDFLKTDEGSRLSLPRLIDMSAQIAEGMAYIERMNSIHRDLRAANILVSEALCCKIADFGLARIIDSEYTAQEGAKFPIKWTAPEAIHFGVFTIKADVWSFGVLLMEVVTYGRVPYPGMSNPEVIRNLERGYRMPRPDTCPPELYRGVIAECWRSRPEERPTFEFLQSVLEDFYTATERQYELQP
Chain of Serine/threonine-protein kinase Nek4 (Homo sapiens) (P51957 whole entry, looked up): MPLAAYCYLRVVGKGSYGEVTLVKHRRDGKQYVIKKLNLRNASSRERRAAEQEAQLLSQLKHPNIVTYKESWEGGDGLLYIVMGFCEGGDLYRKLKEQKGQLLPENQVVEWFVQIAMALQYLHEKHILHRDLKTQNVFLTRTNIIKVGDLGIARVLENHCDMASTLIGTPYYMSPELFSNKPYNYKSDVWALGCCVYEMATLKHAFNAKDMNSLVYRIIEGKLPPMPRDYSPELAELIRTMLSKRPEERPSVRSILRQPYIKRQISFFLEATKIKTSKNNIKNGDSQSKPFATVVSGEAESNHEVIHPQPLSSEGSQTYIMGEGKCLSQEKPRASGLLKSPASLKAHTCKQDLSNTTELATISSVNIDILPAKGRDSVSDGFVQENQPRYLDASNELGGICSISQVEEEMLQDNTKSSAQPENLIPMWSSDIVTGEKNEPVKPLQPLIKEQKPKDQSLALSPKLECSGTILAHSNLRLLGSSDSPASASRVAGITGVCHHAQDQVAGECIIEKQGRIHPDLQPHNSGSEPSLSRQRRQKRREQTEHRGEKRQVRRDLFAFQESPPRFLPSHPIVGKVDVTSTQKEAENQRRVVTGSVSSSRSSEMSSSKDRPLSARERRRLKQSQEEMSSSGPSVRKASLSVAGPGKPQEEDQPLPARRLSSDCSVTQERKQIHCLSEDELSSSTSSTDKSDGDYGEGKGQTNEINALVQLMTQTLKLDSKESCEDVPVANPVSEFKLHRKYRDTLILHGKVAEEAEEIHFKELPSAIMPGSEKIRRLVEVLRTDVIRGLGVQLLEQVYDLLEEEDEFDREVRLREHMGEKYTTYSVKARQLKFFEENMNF
Chain of Non-receptor tyrosine-protein kinase TYK2 (Homo sapiens) (P29597 whole entry): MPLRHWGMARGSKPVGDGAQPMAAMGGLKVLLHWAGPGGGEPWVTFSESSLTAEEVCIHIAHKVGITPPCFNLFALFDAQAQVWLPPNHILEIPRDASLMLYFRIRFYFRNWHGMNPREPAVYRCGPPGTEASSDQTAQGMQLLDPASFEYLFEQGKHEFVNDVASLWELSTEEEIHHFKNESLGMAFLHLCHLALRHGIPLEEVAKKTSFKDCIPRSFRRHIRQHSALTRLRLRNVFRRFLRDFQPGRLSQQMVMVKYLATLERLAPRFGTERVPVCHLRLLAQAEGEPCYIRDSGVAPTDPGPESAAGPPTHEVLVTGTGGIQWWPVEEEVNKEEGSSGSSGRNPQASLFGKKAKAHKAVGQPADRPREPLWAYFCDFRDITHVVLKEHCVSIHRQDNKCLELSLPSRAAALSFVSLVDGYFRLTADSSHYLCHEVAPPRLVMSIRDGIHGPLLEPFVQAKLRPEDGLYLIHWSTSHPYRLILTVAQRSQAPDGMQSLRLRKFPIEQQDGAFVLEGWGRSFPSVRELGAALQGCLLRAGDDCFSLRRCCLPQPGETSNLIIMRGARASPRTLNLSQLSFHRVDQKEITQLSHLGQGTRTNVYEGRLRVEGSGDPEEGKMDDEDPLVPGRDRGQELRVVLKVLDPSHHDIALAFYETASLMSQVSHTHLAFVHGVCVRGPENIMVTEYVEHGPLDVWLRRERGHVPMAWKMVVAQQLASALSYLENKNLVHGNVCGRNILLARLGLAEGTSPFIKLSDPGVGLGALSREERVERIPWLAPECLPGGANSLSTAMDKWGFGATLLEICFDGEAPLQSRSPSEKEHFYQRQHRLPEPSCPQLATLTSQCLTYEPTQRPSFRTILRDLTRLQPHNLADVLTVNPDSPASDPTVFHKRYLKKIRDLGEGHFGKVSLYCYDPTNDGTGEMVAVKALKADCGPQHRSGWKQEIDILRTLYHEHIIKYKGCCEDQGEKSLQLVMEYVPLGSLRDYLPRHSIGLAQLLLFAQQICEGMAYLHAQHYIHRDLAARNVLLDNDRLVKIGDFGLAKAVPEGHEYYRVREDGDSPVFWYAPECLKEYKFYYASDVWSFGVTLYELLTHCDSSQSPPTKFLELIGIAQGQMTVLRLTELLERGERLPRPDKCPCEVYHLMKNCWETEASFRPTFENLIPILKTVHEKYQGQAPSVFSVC

SMILES: COc1ccc2c(O[C@@H]3C[C@H]4C(=O)N[C@]5(C(=O)O)CC5/C=C\CCCCC[C@H](NC(=O)OC5CCCC5)C(=O)N4C3)cc(-c3csc(NC(=O)C(C)C)n3)nc2c1C (stereo not given in full) [BI 1230]
- residual activity [1]: 62%
- residual activity [2]: 43%
- residual activity [3]: 73%
- residual activity [4]: 97%
- residual activity [5]: 95%
- residual activity [6]: 74%
- residual activity [7]: 100%
- residual activity [8]: 84%
- residual activity [9]: 100%
- residual activity [10]: 100%
- residual activity [11]: 94%
- residual activity [12]: 100%
- residual activity [13]: 100%
- residual activity [14]: 98%
- inhibition [15]: 47.1%
- residual activity [16]: 76%
- residual activity [17]: 96%
- residual activity [18]: 97%
- residual activity [19]: 100%
- residual activity [20]: 92%
- residual activity [21]: 97%
- inhibition [22]: 43.5%
- residual activity [23]: 100%
- residual activity [24]: 93%
- residual activity [25]: 100%
- residual activity [26]: 93%
- residual activity [27]: 98%
- inhibition [28]: 10.2%
- residual activity [29]: 97%
- residual activity [30]: 100%
- residual activity [31]: 65%
- inhibition [32]: 3.22%
- residual activity [33]: 57%
- residual activity [34]: 100%
- residual activity [35]: 81%
- residual activity [36]: 89%
- residual activity [37]: 100%
- residual activity [38]: 100%
- residual activity [39]: 94%
- residual activity [40]: 74%
- residual activity [41]: 92%
- inhibition [42]: 22.1%
- residual activity [43]: 92%
- residual activity [44]: 100%
- residual activity [45]: 100%

SMILES: O=C(N[C@H]1CCCCC/C=C\C2C[C@@]2(C(=O)O)NC(=O)[C@@H]2C[C@@H](Oc3ccncc3)CN2C1=O)OC1CCCC1 (stereo not given in full) [BI 1675]
- residual activity [1]: 71%
- residual activity [2]: 80%
- residual activity [3]: 56%
- residual activity [4]: 63%
- residual activity [5]: 100%
- residual activity [6]: 46%
- residual activity [7]: 100%
- residual activity [8]: 88%
- residual activity [9]: 100%
- residual activity [10]: 100%
- residual activity [11]: 88%
- residual activity [12]: 98%
- residual activity [13]: 100%
- residual activity [14]: 100%
- inhibition [15]: 11.3%
- residual activity [16]: 96%
- residual activity [17]: 100%
- residual activity [18]: 100%
- residual activity [19]: 100%
- residual activity [20]: 100%
- residual activity [21]: 100%
- inhibition [22]: -8.87%
- residual activity [23]: 100%
- residual activity [24]: 79%
- residual activity [25]: 78%
- residual activity [26]: 85%
- residual activity [27]: 76%
- inhibition [28]: 9.48%
- residual activity [29]: 92%
- residual activity [30]: 100%
- residual activity [31]: 78%
- inhibition [32]: -1.71%
- residual activity [33]: 89%
- residual activity [34]: 96%
- residual activity [35]: 85%
- residual activity [36]: 100%
- residual activity [37]: 100%
- residual activity [38]: 100%
- residual activity [39]: 93%
- residual activity [40]: 85%
- residual activity [41]: 60%
- inhibition [42]: 1.81%
- residual activity [43]: 93%
- residual activity [44]: 92%
- residual activity [45]: 100%
